Data on 3 compounds can be found in paper PMC6253875, “Synthesis and Evaluation of Non-peptidic Cysteine Protease Inhibitors of P. falciparum Derived from Etacrynic Acid” (Molecules, 2008).

Structures are written as SMILES. Where two headings read alike, the source gives them in different places. Some results are limits rather than exact numbers.

Series [1] deals with P. falciparum strain W2. The settings on record: read-out: P. f. 3D7/W2, IC50; cited from earlier work.
In another series the test system is P. falciparum strain 3D7. As to the kind of experiment: Antiplasmodial activity in vitro, Hoechst-33258 fluorometric assay or parasite lactate dehydrogenase test. The settings on record: Plasmodium falciparum. Format: cell-based. The protocol:
(§1) Recombinant falcipain-2 and falcipain-3 were produced as previously described. Inhibitory activities against recombinant falcipain-2 and falcipain-3 were evaluated in fluorometric microplate assays using the substrates Cbz-Phe-Arg-AMC and Cbz-Leu-Arg-AMC (AMC, 7-amino-4-methyl-coumarin). The cysteine protease inhibitor E-64 was used as a positive control. The solvent DMSO was used as negative control. […] The in vitro data for the etacrynic acid derivatives are compared to those of the well known drug chloroquine and to E-64.
(§2) IC50 values for inhibition of falcipain-2 and falcipain-3 were determined as described previously using the fluorogenic substrates Cbz-Phe-Arg-AMC and Cbz-Leu-Arg-AMC, respectively (AMC, 7-amino-4 methylcoumarin). As a positive control the well-known cysteine protease inhibitor E-64 [7, 25, 26] and as a negative control the solvent (DMSO) was used. Dose-dependent effects of compounds on parasite development (P. falciparum strain W2) were quantified by flow cytometry according to a previously published method. First, a screening with inhibitor concentrations of […] was performed and the percentage activity of infected red blood cells (RBCs) relative to the negative control was determined. […] Chloroquine and E-64 were used as positive controls, and the solvent DMSO was used as a negative control. For selected compounds assays with the P. falciparum strain 3D7 were performed using a fluorometric assay with Hoechst-33258 [28], or the microculture tetrazolium test measuring parasite lactate dehydrogenase activity. The parasites were cultivated in vitro as described previously. Compounds were screened at concentrations between 1 nM and 100 μM. Synchronized ring stages were plated in 96-well plates at a parasitemia of 1%, in the presence of the compounds (dissolved in DMSO). Incubation of parasites with DMSO alone at a concentration of 0.5% v/v was used as a negative control. IC50 values were calculated by non-linear regression analyses using the programs GaphPad® Prism 4 and GraFit® [31, 32].

The target of the next series is T1, falcipain-2 (Plasmodium falciparum, UniProt Q8I6U4).
T1 construct: made in house; host or cells: E. coli
T1 sequence (Q8I6U4 244-484): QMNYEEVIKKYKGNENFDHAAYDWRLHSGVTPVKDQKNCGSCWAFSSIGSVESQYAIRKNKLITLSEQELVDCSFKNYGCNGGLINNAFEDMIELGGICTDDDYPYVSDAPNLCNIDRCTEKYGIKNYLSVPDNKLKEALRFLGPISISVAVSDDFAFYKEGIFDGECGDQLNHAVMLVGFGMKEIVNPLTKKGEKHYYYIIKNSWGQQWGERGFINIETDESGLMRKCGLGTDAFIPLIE
As to the kind of experiment: Inhibition of recombinant falcipain-2, fluorometric microplate assay (Cbz-Phe-Arg-AMC). Format: biochemical. The conditions noted are these: recombinant falcipain-2, values marked ^a: only one experiment, ni = no inhibition. Here is the method: as §1
(§3) Falcipain-2 and falcipain-3 were recombinantly expressed in E. coli and refolded to active enzyme as previously described.
as §2

Series [2] has as its system P. falciparum strain W2. The experiment in a line: Antiplasmodial activity in vitro, parasite development quantified by flow cytometry. The series is classed as cell-based, Plasmodium falciparum. The conditions noted are these: Plasmodium falciparum, 3D7 / W2; W2 strain (CQ-resistant); ni = no inhibition; read-out: P. f. 3D7/W2, IC50. Here is the method: as §2
A general note: Flow cytometry measures light scatter and fluorescence of single cells or particles in a stream.

Series [3] can be described thus: In vitro cytotoxicity assay. The conditions noted are these: human, 293T human kidney epithelium cells; 293T cells. Format: cell-based. The protocol: Recombinant falcipain-2 and falcipain-3 were produced as previously described. […] The cysteine protease inhibitor E-64 was used as a positive control. The solvent DMSO was used as negative control. […] For the experimental procedures, cells were detached from the flasks with a rubber policeman, washed twice with PBS (phosphate-buffer saline) containing 1 mL trypsin-EDTA (1 x), and suspended at 2 x 10^6 cells mL^-1 in complete medium. Inhibitor assays were carried out as described elsewhere except that the cell concentration used in this study was 2 x 10^4 mL^-1 well^-1 [33].

For a further series, the target named is T2, falcipain-3 (Plasmodium falciparum, UniProt Q8IIL0).
T2 construct: made in house; host or cells: E. coli
T2 sequence (Q8IIL0 243-492): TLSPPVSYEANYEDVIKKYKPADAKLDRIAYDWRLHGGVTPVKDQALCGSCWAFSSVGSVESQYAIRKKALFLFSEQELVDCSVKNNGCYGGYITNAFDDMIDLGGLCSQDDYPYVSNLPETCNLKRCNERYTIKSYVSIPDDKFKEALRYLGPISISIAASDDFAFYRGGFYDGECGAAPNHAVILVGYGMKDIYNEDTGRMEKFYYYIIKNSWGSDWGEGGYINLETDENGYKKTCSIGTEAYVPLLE
As to the kind of experiment: Inhibition of recombinant falcipain-3, fluorometric microplate assay (Cbz-Leu-Arg-AMC). Format: biochemical. The conditions noted are these: recombinant falcipain-3; ni = no inhibition; read-out: FP-3 IC50. The protocol:
as §1, §3, §2

As to `CCN(CC)CCCC(C)Nc1ccnc2cc(Cl)ccc12` (stereo not drawn) [CQ, chloroquine, reference compound], the IC50 was 0.24 µM with P. falciparum strain W2 [1] and 0.01 ± 0.0048 µM in the series with P. falciparum strain 3D7 (3D7, read-out: P. f. 3D7/W2, IC50).
As to `C=C(CC)C(=O)c1ccc(OCC(=O)NCCCC)c(F)c1` [Compound 6, N-butyl-2-(2-fluoro-4-(2-methylenebutanoyl)phenoxy)acetamide], the melting point – broadly, the temperature of the solid-liquid transition – came to 73 °C. At falcipain-2, the “FP-2 IC50” value was “ni”. Also, the IC50 with P. falciparum strain 3D7 (3D7 strain (CQ-sensitive), read-out: P. f. 3D7/W2, IC50) turned out to be 141 ± 4 µM.
As to `C=C(CC)C(=O)c1ccc(OCC(=O)NCCCCCC(=O)O)c(Cl)c1Cl` [Compound 23, 6-{2-[2,3-Dichloro-4-(2-methylene-butyryl)-phenoxy]acetylamino}-hexanoic acid], the IC50 in the series on P. falciparum strain W2 [2] was 18.8 ± 0.9 µM; at falcipain-2 (read-out: FP-2 IC50), 57.1 ± 13 µM; in series [3] it was above 160 µM; on falcipain-3, 96.5 ± 0.6 µM.
